Results published in patent publication US7691985B2, “Skeletal-targeted radiation to treat bone-associated pathologies” (priority 1999, dated 2010).

Key:
[1] = Phase II multicenter dosimetry study of ^166Ho-DOTMP: safety, biodistribution, pharmacokinetics (Example 9); type: in vivo, human
Experimental: A 12-patient, Phase II multicenter study was performed to further evaluate the safety, biodistribution and pharmacokinetics of ^166Ho-DOTMP. Each patient was to receive two 30 mCi tracer doses of ^166Ho-DOTMP followed, in eligible patients (those with adequate skeletal uptake parameters), by a therapy dose calculated to deliver 25 Gy to the red marrow. All patients in this study received CBI.

[2] = Stability of ^166Ho-DOTMP with and without stabilizer: radiochemical purity by ITLC, CEC, HPLC (Example 15); type: physicochemical; conditions: ascorbic acid about 35-75 mg/mL, ambient conditions, unfrozen
Experimental: Samples of ^166Ho-DOTMP were prepared according to the procedure in Example 1 using ascorbic acid, 55 mg/mL, as the stabilizer. Identical samples were prepared without ascorbic acid. The solutions were analyzed for radiochemical purity after 1 hour, 6 hours, 10 hours, 24 hours, and 48 hours, using Instant Thin Layer Chromatography (ILTC), Cation Exchange Chromatography (CEC) and High Performance Liquid Chromatography (HPLC).

multiple myeloma = test: Single patient: 40 Gy ^166Ho-DOTMP, melphalan 140 mg/m^2 (Example 12); type: in vivo, human
Experimental: The patient, a person with an original diagnosis of multiple myeloma, was administered a therapeutic dose of ^166Ho-DOTMP of 3875 mCi which was calculated to deliver 40 Gy to the marrow. Post ^166Ho-DOTMP, the patient received a dose of 140 mg/m^2 of melphalan (I.V.). The patients stem cells were reinfused three days after the melphalan and were followed by G-CSF for ten days.

[3] = 3875 mCi (40 Gy to marrow), melphalan 140 mg/m^2, one patient

SMILES: O=P([O-])(O)CN1CCN(CP(=O)(O)O)CCN(CP(=O)([O-])O)CCN(CP(=O)(O)O)CC1.[166Ho] [^166Ho-DOTMP]
- route of excretion ([1]; gamma camera counting and urine PK): no route of excretion other than the urine
- localization of retained activity ([1]; gamma camera images): retained activity was localized in the skeleton
- hypocalcemia or associated cardiac abnormalities ([1]; serum calcium, ECG and Holter monitoring): no clinical observations of hypocalcemia or associated cardiac abnormalities were noted
- acute toxicities ([1]; therapy dose 25 Gy to red marrow): no unexpected acute toxicities were noted
- time to engraftment after stem cell transplant ([1]; therapy dose calculated to deliver 25 Gy to red marrow, all patients): ≤ 15 days
- time the solution is stable, e.g., therapeutically useful [2]: ≥ 72 h
- days post stem cell transplant to neutrophil engraftment (ANC >500) (multiple myeloma; [3]): Nine
- days post transplant to platelet engraftment (>20,000) (multiple myeloma; [3]): fourteen
- response (multiple myeloma; twenty-eight days post transplant, one patient): complete remission
